Laboratory results from ChEMBL document CHEMBL1201862, “PubChem BioAssay data set” (2004).
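Cultured in 96-well plates, cells were exposed to test compound for 48 hours across five concentrations. GI50 is the concentration that inhibits growth by half.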 Calls of active or inactive are those of the source. Rule as the data show it: active = GI50 up to about 1.1 µM and inactive = higher.

What was measured:
Test in all cases: growth of human tumour cells (NCI), 48 h
786-0 = tested on: 786-0
A549 = tested on: A549
BT-549 = tested on: BT-549
COLO 205 = tested on: COLO 205
HCC 2998 = tested on: HCC 2998
HOP-92 = tested on: HOP-92
IGROV-1 = tested on: IGROV-1
MDA-MB-231 = tested on: MDA-MB-231
MDA-MB-435 = tested on: MDA-MB-435
NCI-H23 = tested on: NCI-H23
NCI-H460 = tested on: NCI-H460
OVCAR-3 = tested on: OVCAR-3
OVCAR-8 = tested on: OVCAR-8
PC-3 = tested on: PC-3
SF-268 = tested on: SF-268
SK-MEL-28 = tested on: SK-MEL-28
SK-MEL-2 = tested on: SK-MEL-2
SK-OV-3 = tested on: SK-OV-3
SNB-19 = tested on: SNB-19
SNB-75 = tested on: SNB-75

Row | Compound | GI50 (786-0) | GI50 (A549) | GI50 (BT-549) | GI50 (COLO 205) | GI50 (HCC 2998) | GI50 (HOP-92) | GI50 (IGROV-1) | GI50 (MDA-MB-231) | GI50 (MDA-MB-435) | GI50 (NCI-H23) | GI50 (NCI-H460) | GI50 (OVCAR-3) | GI50 (OVCAR-8) | GI50 (PC-3) | GI50 (SF-268) | GI50 (SK-MEL-28) | GI50 (SK-MEL-2) | GI50 (SK-OV-3) | GI50 (SNB-19) | GI50 (SNB-75)
1 | CCOC(=O)C1=CN(C(=O)c2ccccc2)CCC1Cc1ccccc1 (stereo not given) | 28.6 µM (inactive) | 29.2 µM (inactive) | 25.8 µM (inactive) | 18.9 µM (inactive) | 17.6 µM (inactive) | 14.7 µM (inactive) | 27.3 µM (inactive) | 17.7 µM (inactive) | 20.4 µM (inactive) | 29 µM (inactive) | 17.5 µM (inactive) | 25.9 µM (inactive) | 24.4 µM (inactive) | 17.7 µM (inactive) | 32.9 µM (inactive) | 22.9 µM (inactive) | 16.8 µM (inactive) | 31 µM (inactive) | 34.4 µM (inactive) | 18.2 µM (inactive)
2 | CCn1cc(C(=O)O)c(=O)c2cc(F)c(N3CCN(CN4C(=O)/C(=N\NC(=O)c5ccncc5)c5cc(Cl)ccc54)CC3)cc21 | 38.6 µM (inactive) | 57.3 µM (inactive) | 91.6 µM (inactive) | 52.7 µM (inactive) | 36 µM (inactive) | 45.5 µM (inactive) | 18.3 µM (inactive) | 52.7 µM (inactive) | 28.6 µM (inactive) | 59.4 µM (inactive) | 52.4 µM (inactive) | 39.1 µM (inactive) | 28.5 µM (inactive) | 38.5 µM (inactive) | 61.4 µM (inactive) | 59.2 µM (inactive) | 23 µM (inactive) | 24.9 µM (inactive) | 44.3 µM (inactive) | 25.5 µM (inactive)
3 | C[C@]12CC[C@H]3[C@@H](CC[C@]4(O)C[C@@H](O)CC[C@]34/C=N/O)[C@@]1(O)CC[C@@H]2C1=COC(=O)C1 | 0.102 µM (active) | 0.0336 µM (active) | 0.0675 µM (active) | 0.474 µM (active) | 0.251 µM (active) | 0.2 µM (active) | 0.136 µM (active) | 0.589 µM (active) | 0.257 µM (active) | 0.0644 µM (active) | 0.0403 µM (active) | 0.0472 µM (active) | 0.154 µM (active) | 0.149 µM (active) | 0.0728 µM (active) | 0.482 µM (active) | 0.255 µM (active) | 0.0436 µM (active) | 0.673 µM (active) | 0.332 µM (active)
4 | CN(C)CC1CCCCCC(Br)C1=O (stereo not given) | 2.25 µM (inactive) | > 70.8 µM (inactive) | 11.7 µM (inactive) | 11.5 µM (inactive) | 4.57 µM (inactive) | 5.66 µM (inactive) | 28.2 µM (inactive) | 16.1 µM (inactive) | 16 µM (inactive) | 13.4 µM (inactive) | 17.7 µM (inactive) | 7.38 µM (inactive) | 13 µM (inactive) | 21.3 µM (inactive) | 24.2 µM (inactive) | 15.9 µM (inactive) | 20.7 µM (inactive) | > 100 µM (inactive) | > 83.2 µM (inactive) | 37.2 µM (inactive)
5 | CCOC(=O)/C=C(\C(=O)OCC)n1ccc(=O)n(CC(=O)OCC)c1=O | 1.82 µM (inactive) | 17.2 µM (inactive) | 11.7 µM (inactive) | 1.26 µM (inactive) | 16 µM (inactive) | 1.45 µM (inactive) | 6.82 µM (inactive) | 6.12 µM (inactive) | 5.85 µM (inactive) | 8.07 µM (inactive) | 15.6 µM (inactive) | 3.96 µM (inactive) | 5.25 µM (inactive) | 4.74 µM (inactive) | 13.2 µM (inactive) | 6.25 µM (inactive) | 14 µM (inactive) | 17.9 µM (inactive) | 19.3 µM (inactive) | 9.75 µM (inactive)
6 | C=C1C/C(=C/C)C(=O)O[C@@H]2CCN3CC=C(COC(=O)[C@]1(C)O)[C@H]23 [SENECIPHYLLINE] | > 100 µM (inactive) | > 100 µM (inactive) | > 100 µM (inactive) | > 100 µM (inactive) | > 100 µM (inactive) | > 100 µM (inactive) | > 100 µM (inactive) | > 100 µM (inactive) | > 100 µM (inactive) | > 100 µM (inactive) | 84.9 µM (inactive) | > 100 µM (inactive) | > 100 µM (inactive) | > 100 µM (inactive) | > 100 µM (inactive) | > 100 µM (inactive) | > 100 µM (inactive) | > 100 µM (inactive) | > 100 µM (inactive) | > 100 µM (inactive)
7 | CC(=O)OCC1OC(On2ccccc2=S)C(OC(C)=O)C(OC(C)=O)C1OC(C)=O (stereo not given) | > 100 µM (inactive) | > 100 µM (inactive) | > 100 µM (inactive) | 81.5 µM (inactive) | > 100 µM (inactive) | > 100 µM (inactive) | > 100 µM (inactive) | > 100 µM (inactive) | > 100 µM (inactive) | > 100 µM (inactive) | > 100 µM (inactive) | > 100 µM (inactive) | > 100 µM (inactive) | 69.2 µM (inactive) | > 100 µM (inactive) | > 100 µM (inactive) | > 100 µM (inactive) | > 100 µM (inactive) | > 100 µM (inactive) | > 100 µM (inactive)
8 | COC(=O)C1=C(C)NC(C)=C(C(=O)OC)C1c1cccc(/[N+]([O-])=C/c2ccccc2)c1 | 17.7 µM (inactive) | > 100 µM (inactive) | 16.3 µM (inactive) | 16.8 µM (inactive) | > 100 µM (inactive) | 23.4 µM (inactive) | 74.3 µM (inactive) | 17.5 µM (inactive) | 19.7 µM (inactive) | 33.3 µM (inactive) | 97.9 µM (inactive) | 17.4 µM (inactive) | 17.5 µM (inactive) | 46.7 µM (inactive) | 69.5 µM (inactive) | 17.5 µM (inactive) | 75 µM (inactive) | > 100 µM (inactive) | > 100 µM (inactive) | 41.7 µM (inactive)
9 | COc1cc2nc(-c3cccs3)nc(Nc3ccccc3C(=O)NN)c2cc1OC | 95.7 µM (inactive) | > 100 µM (inactive) | > 100 µM (inactive) | 67.3 µM (inactive) | > 100 µM (inactive) | 21.6 µM (inactive) | > 100 µM (inactive) | > 100 µM (inactive) | 95.7 µM (inactive) | > 100 µM (inactive) | > 100 µM (inactive) | 57.5 µM (inactive) | > 100 µM (inactive) | > 100 µM (inactive) | > 100 µM (inactive) | 99.8 µM (inactive) | > 100 µM (inactive) | > 100 µM (inactive) | > 100 µM (inactive) | > 100 µM (inactive)
10 | CC1(C)N=C(N)N=C(N)N1c1cccc(CSc2ccccc2)c1 | 0.0929 µM (active) | 0.0301 µM (active) | 15.9 µM (inactive) | 0.794 µM (active) | 73.1 µM (inactive) | 32 µM (inactive) | 0.0301 µM (active) | > 100 µM (inactive) | 0.0813 µM (active) | 0.619 µM (active) | 0.0404 µM (active) | 0.991 µM (active) | 3.16 µM (inactive) | 3.73 µM (inactive) | 0.0363 µM (active) | 0.805 µM (active) | 18.4 µM (inactive) | 95.3 µM (inactive) | 0.218 µM (active) | 4.42 µM (inactive)
